What was measured:
[1] = test system: rats with visceral hypersensitivity induced by the butyrate; assay: CRD test, role of CB2 and MOR receptors in NCFM-induced analgesia (antagonists) in butyrate-treated rats; assay type: in vivo, rat; settings: for effect on NCFM-induced analgesia: butyrate-treated rats receiving NCFM 10^9 CFU/day 15 days, antagonist given peritoneally 30 min before CRD (AM630, naloxone methiodide 2 mg/kg); for effect on pain perception in control rats: control rats with butyrate-induced visceral hypersensitivity, no NCFM, AM630 or naloxone methiodide 2 mg/kg, 30 min before CRD
Procedure: (§1) Male Sprague-Dawley rats (Charles River, l'Arbresle, France) weighing 175-200 g were used in this study. Rats were maintained in laboratory conditions for 1 week before experiment. The animals were housed 5 per cage with food and water available ad libitum. All studies were performed in accordance with the proposal of the committee for Research and Ethical Issues of the International Association for the Study of Pain (Zimmermann M, Pain. 1983; 16:109-110). Great care was taken, particularly with regard to housing conditions, to avoid or minimize discomfort to the animals.
For each enema, a catheter (2-mm Fogarty catheter) was placed in the colon at 7 cm from the anus, and the animals received 1 ml of 200 mM of sodium butyrate at neutral pH (pH6.9) twice daily for 3 days. Healthy animals received saline.
Nociception in the animals was assessed by measuring the intracolonic pressure required to induce a behavioral response during colorectal distension (CRD) due to the inflation of a balloon introduced in the colon. This response was characterized by an elevation of the hind part of the animal body and clearly visible abdominal contraction corresponding to the severe contractions (Al Chaer, gastro 2000; Tarrerias, pain 2002; Bourdu et al., 2005). Briefly, rats were anesthetized with volatile anaesthesia (2% isoflurane), the balloon (prepared as previously described in Bourdu & al, 2005) was inserted intrarectally in a minimally invasive manner to 7 cm from the anus, and the catheter was taped to the base of the tail. After 5 minutes, rats were placed in the middle of a 40×40-cm Plexiglas box and the catheter was connected to an electronic barostat apparatus (Synectics Visceral Stimulator; Medtronic, Boulogne-Billancourt, France).
Four groups of animals treated with butyrate were used (n=10/group). Two groups were treated once a day during fifteen days by gastric gavage, 10^9 CFU of NCFM strain and the two other groups of butyrate-treated animals received CarboxyMethyl Cellulose (CMC) by the same route and during the same time. NCFM strain was resuspended in 0.5% CMC (CarboxyMethyl Cellulose, Sigma). Butyrate instillations began 7 days after the first gavage for three days. Colonic hypersensitivity was determined 14 days after the after beginning of oral treatment thus 7 days after colonic instillations. […]
(§2) All experiments were performed in a blind manner by the same experimenter using the block method. Results are expressed as mean±SEM of raw data. Results of CRD testing were analysed using one-way analysis of variance (ANOVA) followed of a Bonferroni post-hoc test to compare several treatments. […]

[2] = test system: rats with colonic hypersensitivity induced by butyrate enemas; settings: rat with visceral hypersensitivity induced by butyrate; known from Bourdu et al; cited from earlier work
[3] = test system: rats with colonic hypersensitivity induced by butyrate; assay: CRD test, probiotic co-administered with suboptimal morphine in rats with butyrate-induced colonic hypersensitivity; assay type: in vivo, rat; settings: butyrate-treated rats
Procedure: as §1, with “Pain” for “Pain.”, “animals. […]” for “animals.”
Nociception in the animals was assessed by measuring the intracolonic pressure required to induce a behavioral response during colorectal distension (CRD) due to the inflation of a balloon introduced in the colon. […]
Four groups of animals treated with butyrate were used (n=10/group). […] Colonic hypersensitivity was determined 14 days after the after beginning of oral treatment thus 7 days after colonic instillations. […]
as §2

Row | SMILES | effect on NCFM-induced analgesia [1] | effect on pain perception in control rats [1] | effect on colonic hypersensitivity in CRD test [2] | pain threshold ([3]; morphine 0.1 mg/kg subcutaneously alone, 30 min before CRD, mean±SEM) | difference on pain threshold vs rats not receiving morphine ([3]; suboptimal dosage of morphine 0.1 mg/kg)
1 | C=CC[N+]1(C)CC[C@]23c4c5ccc(O)c4O[C@H]2C(=O)CC[C@@]3(O)[C@H]1C5 (stereo partly shown) [NLX, naloxone methiodide] | not | no effect | – | – | –
2 | CN1CC[C@]23c4c5ccc(O)c4O[C@H]2[C@@H](O)C=C[C@H]3[C@H]1C5 [morphine] | – | – | dose-dependent decrease | 41.5±2.4 | No difference
3 | COc1ccc(C(=O)c2c(C)n(CCN3CCOCC3)c3cc(I)ccc23)cc1 [AM630] | significantly inhibited | no effect | – | – | –

From patent US20090311227A1, “Composition” (Danisco A/S, priority 2006, published 2009)
